Here are results for two substances from patent EP3856749B1, “WATER-SOLUBLE, NON-AGGREGATED SILICON PHTALGCYANINE COMPOUND HAVING IN VITRO ANTICANCER EFFECT AGAINST CANCER TYPES OF LUNG, LIVER, BREST AND MELANOMA” (Karadeniz Teknik Universitesi, priority 2018, dated 2020).

In data set [1] the test system is breast (BT-20) cancer cell lines. Put plainly: Cytotoxicity test (MTT), BT-20. The class given is cell-based, human. As to conditions: BT20, 48 hours. An excerpt: (§1) Cytotoxic effects of test substances are testes by means of using human breast (BT-20), melanoma (SK-Mel 128), prostate (DU-145), liver (SNU-398) and lung (A549) cancer cell lines. Toxic effects of test substances on the healthy normal cells are studied on human fibroblast cells (HFC).
(§2) Cell suspension prepared from alpha-MEM having 10% FBS (Fetal Bovine Serum), fungizone and penicillin/streptomycin is distributed as 5×10^3 of cell in each well in the cell culture containers comprising 96 wells for the test. […] Cells are kept in a humid environment at 5% of CO2 at 37°C for 48 hours in the presence of the test substance, of which final densities are of 200-0.09 µg/mL. 10 µL from the MTT solution (3-[4,5-dimethyltioazol-2,5-diphenyltetrazolium bromide) prepared at a density of 5 mg/mL is added to each well so as to determine the cell generation rate at the end of incubation period. After culture containers are kept in the humid environment at 5% of CO2 at 37°C for 2 hours, the content is emptied and dimethyl sulphoxide (DMSO) is added in the value of 100 µL/well on cells so as to solubilize intracellular formazan crystals. After incubation for 30 minutes, the color intensity is measured in the wave length of 570/620 by means of ELISA Microplate Reader (Tecan, Sunrise).

Data set [2] relates to liver (SNU-398) cancer cell lines. As to the kind of experiment: Cytotoxicity test (MTT), SNU-398. The class given is cell-based, human. Particulars: SNU-398, 48 hours.
From the text: as §1, §2

Data set [3] has as its system prostate (DU-145) cancer cell lines. As to the kind of experiment: Cytotoxicity test (MTT), DU-145. The class given is cell-based, human. Particulars: DU-145, 48 hours.
From the text: as §1, §2

Data set [4] concerns melanoma (SK-Mel 128) cancer cell lines. As to the kind of experiment: Cytotoxicity test (MTT), SK-Mel 128. The class given is cell-based, human. As to conditions: SK-MEL 128, 48 hours.
From the text: as §1, §2

For data set [5], the system named is CT-DNA. As to the kind of experiment: UV-Vis absorption titration. As to conditions: in the presence of CT-DNA; 5 mM Tris-HCl/50 mM NaCl (pH 7.2). The class given is binding. On the procedure: Stock solutions of compounds are obtained by means of being solved in water and stored in a room temperature in darkness. Stock solutions of CT-DNA are prepared in 5 mM Tris-HCl buffer of 7.2 pH with 50 mM NaCl and stored at 4 °C for three days. At the end of this period, absorbance rates of 260 and 280 nm are calculated so as to determine rate of DNA impurity. […] Concentration of DNA is measured and calculated at 260 nm by using molar excitation coefficient of (ε) 6600 M^-1cm^-1. All studies with the interaction between compounds and CT-DNA are carried out in 5 mM Tris-HCl/50 mM NaCl (pH 7.2) by keeping stock solutions prepared in water at the stable concentration and changing CT-DNA concentration. While carrying out this process, absorbance of CT-DNA is eliminated by adding CT-DNA in an equal amount on the blind solution.
Variations in the absorbance intensity are presented in percent. %H = [(A1−A2)/(A1)] × 100 [formula]
A1: Maximum absorbance of the compound; A2: Absorbance of the compound subsequent to addition of DNA.

Data set [6] concerns CT-DNA. As to the kind of experiment: Competitive EB binding experiment. As to conditions: EB (50 µM), CT-DNA (50 µM), pH 7.2. On the procedure:
It is observed in competitive EB binding studies of compounds how the wave length and absorbance, in which EB (50 µM) whose concentration is kept stable presents the maximum absorbance, vary with addition of CT-DNA (50 µM) and then with simultaneous addition of DNA and complex. This study is carried out in the buffer of 5 mM Tris-HCl/50 mM NaCl (pH 7.2).

Data set [7] deals with supercoiled pBR322 plasmid DNA. As to the kind of experiment: Nuclease activity under irradiation (photonuclease). The class given is biochemical. As to conditions: for nuclease activity under irradiation: light for 15 minutes, 700 nm filter, increasing concentrations. The text has this:
Cleavage activities of supercoiled pBR322 plasmid DNA of the compounds are observed by means of using agarose-gel electrophoresis. When the supercoiled is exposed to pBR322 plasmid DNA electrophoresis, it is observed that the supercoiled form (Form I) migrates in the swiftest manner. In case of a cut occurred on a single chain, the supercoiled form creates a nicked form (Form II) moving in the slowest manner. In case both chains are cut, the linear form (Form III) migrating between Form I and Form II.
It is used General Electric quartz lamb of 300 watts and optical filter of 700 nm for compounds illustrated as Formula I and II to light in the proper wave length so as to observe that the supercoiled pBR322 plasmid DNA is cleavage by the compounds and so as to evaluate usability potentials of the compounds in the photo-dynamic therapy. In this study, total volume of reaction mixture contained 50 mM Tris-HCl (pH 7.0), super-coiled pBR322 plasmid DNA (250 ng), and increasing concentrations of compounds. Afterwards, well contents are exposed to light for 15 minutes. At the end of this period, after mixtures are incubated in darkness at 37 °C for an hour, reactions are stopped by means of above-mentioned methods and cut products are observed on the agarose gel under UV light.

As for “bis(3,5-bis{3-[3-(diethylmethylamino)phenoxy]propoxy}phenyl)methoxy)phthalocyaninato silicon (IV) Iodide [7a]”, the CC50 in data set [1] turned out to be 1440 nM; in data set [2], 490 nM; in data set [3] it was 2990 nM; in data set [4], 1130 nM. Also, the hypochromism in data set [5] is on record as 43.64%. The red-shift in data set [5] is 6 nm. For the same substance, in data set [6], the “competitive EB binding” value is listed as “compete with EB so as to bind with CT-DNA”. In addition, in data set [7], the “nuclease activity under irradiation” value was “exhibits the nuclease activity depending on the concentration”.

Take “bis(3,5-bis{3-[3-trimethylamino)phenoxy]propoxy}phenyl)methoxy)phthalocyaninato silicon (IV) Iodide [3a]”: the 50% cytotoxic concentration (CC50) in data set [1] came out at 3960 nM; in data set [2], 860 nM; in data set [3], 4630 nM; in data set [4], 1470 nM. Besides, in data set [5], the hypochromism was 25.40%. Moreover, in data set [5], the red-shift is 6 nm. The “competitive EB binding” value in data set [6] is on record as “compete with EB so as to bind with CT-DNA”. Further, the “nuclease activity under irradiation at 100 µM” value in data set [7] (in the presence of light, concentration of 100 µM) is “destroys pBR322 plasmid DNA completely”. Moreover, the “nuclease activity under irradiation” value in data set [7] is listed as “exhibits the nuclease activity depending on the concentration”.

As a reminder, the CC50 is the concentration giving 50% cytotoxicity. Higher therefore signals better tolerance by the cells.
